Assay results reported in patent US9447408B2, “Method of efficiently establishing induced pluripotent stem cells” (Kyoto University, priority 2010, dated 2016).

What was measured:
[1] = test system: Human dermal fibroblasts (Tig109 line); assay: Human iPS cell colony formation, 4 genes introduced, various p38 inhibitors; assay type: cell-based; details: for number of iPS cell colonies on day 40 after the infection: no colonies in either control group
Experimental: Human dermal fibroblasts (Tig109 line) were treated using a lentivirus (pLenti6/UbC-Slc7a1) according to the method described by Takahashi, K. et al. in Cell, 131: 861-872 (2007), to express the mouse ecotropic virus receptor Slc7a1 gene. These cells (2×10^5 cells/10 cm dish) were transfected with the four genes using a retrovirus according to the method described by Takahashi, K. et al. in Cell, 131: 861-872 (2007); each compound was added per the schedule shown below. • 1. Oct3/4, Sox2, Klf4, c-Myc, each derived from human, saline • 2. Oct3/4, Sox2, Klf4, c-Myc, each derived from human, DMSO (Day 5-35) • 3. Oct3/4, Sox2, Klf4, c-Myc, each derived from human, SB202190 10 μM (Day 5-20) • 4. Oct3/4, Sox2, Klf4, c-Myc, each derived from human, SB239063 10 μM (Day 5-20) • 5. Oct3/4, Sox2, Klf4, c-Myc, each derived from human, SB202190 10 μM (Day 21-35) • 6. Oct3/4, Sox2, Klf4, c-Myc, each derived from human, SB239063 10 μM (Day 21-35) • 7. Oct3/4, Sox2, Klf4, c-Myc, each derived from human, SB202190 10 μM (Day 5-35) • 8. Oct3/4, Sox2, Klf4, c-Myc, each derived from human, SB239063 10 μM (Day 5-35) On days 24, 32, and 40 after the infection, iPS cell colonies were counted. When the four factors (Oct3/4, Sox2, Klf4, C-Myc) were combined with SB239063 added on days 5 to 20 after the infection, the number of human iPS cell colonies increased on day 24 after the infection.

[2] = test system: Mouse embryonic fibroblasts (MEFs); assay: iPS cell establishment from Nanog-GFP reporter MEFs, 4 genes (Oct3/4, Sox2, Klf4, c-Myc) introduced, with p38 inhibitors; assay type: cell-based; details: for number of Nanog-GFP-positive colonies compared with physiological saline or DMSO: 10 μM inhibitor added on days 1 to 4 after the infection
Experimental: Mouse embryonic fibroblasts (MEFs) from a Nanog reporter mouse carrying Nanog-GFP—IRES-Puro^r [Okita K. et al, Nature 448, 313-317 (2007)] were transfected with four genes using a retrovirus to induce iPS cells.
Each retrovirus for reprogramming was prepared by transferring each of retroviral expression vectors (pMXs-Oct3/4, pMXs-Sox2, pMXs-Klf4, pMXs-cMyc:Cell, 126, 663-676 (2006)) to Plat-E cells (Morita, S. et al., Gene Ther. 7, 1063-1066) that had been seeded to a 6-well culture plate (Falcon) at 0.6×10^6 cells per well on the day before. The cells were cultured at 37° C. in the presence of 5% CO2 using DMEM/10% FCS [a culture broth prepared by adding 10% fetal calf serum to DMEM (Nacalai Tesque)]. To facilitate vector transfer, 4.5 μL of FuGene6 transfection reagent (Roche) was placed in 100 μL of Opti-MEM I Reduced-Serum Medium (Invitrogen), and the medium was allowed to stand at room temperature for 5 minutes. Subsequently, 1.5 μg of each expression vector was added, and the medium was allowed to further stand at room temperature for 15 minutes, after which they were added to the Plat-E culture broth. On day 2, the Plat-E supernatant was replaced with a fresh supply of the medium. On day 3, the culture supernatant was recovered and filtered through a 0.45 μm sterile filter (Whatman), and polybrene (Nacalai) was added at 4 μg/mL to yield a viral liquid.
Mouse embryonic fibroblasts (MEFs) were isolated from a fetal Nanog reporter mouse (13.5 days after fertilization). […] Not expressing the puromycin resistance gene as well, MEFs are susceptible to the antibiotic puromycin. As such, MEFs were seeded to a 6-well culture plate (Falcon), previously coated with 0.1% gelatin (Sigma), at 1.0×10^5 cells per well. DMEM/10% FCS served as the culture broth at 37° C. in the presence of 5% CO2. The following day, each retrovirus liquid was added, and this was followed by overnight infection to introduce the genes.
On day 1 after the viral infection, the medium for the MEFs was removed, and the cells were washed by the addition of 1 mL of PBS. After removing the PBS, 0.25% Trypsin/1 mM EDTA (Invitrogen) was added, and a reaction was carried out at 37° C. for about 5 minutes. After the cells floated up, the cells were suspended by the addition of an ES cell culture medium and 2500 cells were seeded to a 100 mm dish having mitomycin C-treated STO feeder cells seeded thereto previously. Cultivation was continued while replacing the ES cell culture medium with a fresh supply of the same medium every two days until a visible colony emerged.
To determine the effects of p38 inhibitors on the establishment of iPS cells by the introduction of the four mouse genes, cultivation was continued with the addition of 10 μM of the p38 inhibitor 5B202190, SB239063, or SB203580 (Calbiochem Company) to the medium per the schedule shown below. All these inhibitors were used in solution in DMSO. • 1. Oct3/4, Sox2, Klf4, c-Myc, each derived from mouse, saline • 2. Oct3/4, Sox2, Klf4, c-Myc, each derived from mouse, DMSO • 3. Oct3/4, Sox2, Klf4, c-Myc, each derived from mouse, SB202190 10 μM Day 1-4) • 4. Oct3/4, Sox2, Klf4, c-Myc, each derived from mouse, SB202190 10 μM (Day 1-8) • 5. Oct3/4, Sox2, Klf4, c-Myc, each derived from mouse, SB202190 10 μM (Day 9-16) • 6. Oct3/4, Sox2, Klf4, c-Myc, each derived from mouse, SB202190 10 μM (Day 1-16) • 7. Oct3/4, Sox2, Klf4, c-Myc, each derived from mouse, SB239063 10 μM (Day 1-4) • 8. Oct3/4, Sox2, Klf4, c-Myc, each derived from mouse, SB239063 10 μM (Day 1-8) • 9. Oct3/4, Sox2, Klf4, c-Myc, each derived from mouse, SB239063 10 μM (Day 9-16) • 10. Oct3/4, Sox2, Klf4, c-Myc, each derived from mouse, SB239063 10 μM (Day 1-16) • 11. Oct3/4, Sox2, Klf4, c-Myc, each derived from mouse, SB203580 10 μM (Day 1-4) • 12. Oct3/4, Sox2, Klf4, c-Myc, each derived from mouse, SB203580 10 μM (Day 1-8) • 13. Oct3/4, Sox2, Klf4, c-Myc, each derived from mouse, SB203580 10 μM (Day 9-16) • 14. […]

SMILES	number of human iPS cell colonies on day 24 after the infection ([1]; 10 μM added on days 5 to 20)	number of iPS cell colonies on day 40 after the infection ([1]; 10 μM inhibitor)	number of Nanog-GFP-positive colonies compared with physiological saline or DMSO [2]	effect on colony count when measured on day 28 after the infection ([2]; 10 μM inhibitor on days 1 to 4, counted day 28)	colony count compared with cells treated with physiological saline or DMSO ([2]; 10 μM inhibitor on days 1 to 4 after the infection, FIG. 1)	number of iPS cell colonies on day 32 after the infection ([1]; 10 μM inhibitor)	effect on iPS cell colony number on day 32, inhibitor added day 21 to day 35 ([1]; 10 μM, Day 21-35)
COc1nccc(-c2c(-c3ccc(F)cc3)ncn2[C@H]2CC[C@H](O)CC2)n1 [SB239063, trans-1-(4-Hydroxycyclohexyl)-4-(4-fluorophenyl)-5-(2-methoxypyrimidin-4-yl)imidazole]	increased	two	increased	remarkable	tended to increase		
Oc1ccc(-c2nc(-c3ccc(F)cc3)c(-c3ccncc3)[nH]2)cc1 [SB202190, 4-(4-fluorophenyl)-2-(4-hydroxyphenyl)-5-(4-pyridyl)imidazole]		increased remarkably	increased			capable of increasing the number of iPS cell colonies	remarkable effects
